For assay [1], the system named is Escherchia coli (ATCC 25922). The experiment in a line: Antibacterial MIC, microplate dilution with tetrazolium violet. The assay is classed as cell-based, Escherichia coli. To be noted: compounds in DMSO serially diluted with sterile water in microplates, overnight, 37 °C, 100% relative humidity, tetrazolium violet read-out, lowest concentration inhibiting growth. The procedure: (§1) All compounds were screened for antibacterial activity against Escherchia coli (ATCC 25922), Bacillus subtilis (ATCC 6633), Shigella flexeneri (clinical isolate), Staphylococcus aureus (ATCC 25923), Pseudomonas aeruginosa (ATCC 27853), and Salmonella typhi (ATCC 19430), according to the method as reported previously. The disc diffusion technique was used to determine the antibacterial activity of the test compounds. The compounds were dissolved in DMSO to obtain a 10 mg/mL solution. A known volume ([…]) of the solution was applied on to the sterilized filter paper discs with the help of a micropipette. The discs were dried at room temperature overnight and stored in sterile dry containers. Discs, soaked with […] of DMSO, and air dried at room temperature, were used as negative control. Bacterial cultures were grown in a nutrient broth medium at 37 °C overnight and spread on to solidified nutrient agar medium in Petri plates using sterilized cotton swabs in a standard microbiological working environment. Test and control discs were then applied to the solidified medium surface with the help of sterilized forceps. The plates were incubated at 37 °C for 12–15 h. The results were recorded by measuring the zone of inhibition in mm against each compound. Impenem was used as standard drug. MIC was calculated as previously reported. Compounds were briefly dissolved in DMSO and serially diluted with sterile water in microplates in a laminar flow cabinet. The same volume of an actively rowing culture of the test bacteria was added to the different wells and cultures were grown overnight in 100% relative humidity at 37 °C. The next morning, tetrazolium violet was added to all the wells. Growth was indicated by a violet color of the culture. The lowest concentration of the test solution that led to an inhibition of growth was taken as the MIC. The negative control DMSO had no influence on the growth at the highest concentration used. Impenem was used as controls for comparison (See Table 1).

Assay [2] deals with tested bacterial pathogens. As to the kind of experiment: Antibacterial activity, overall verdict over the panel. It counts as cell-based. To be noted: verdict over the six tested bacterial pathogens of Table 2. The procedure: as §1
For assay [3], the system named is Pseudomonas aeruginosa (ATCC 27853). As to the kind of experiment: Antibacterial MIC, microplate dilution with tetrazolium violet. It counts as cell-based. The following applies: compounds in DMSO serially diluted with sterile water in microplates, overnight, 37 °C, 100% relative humidity, tetrazolium violet read-out. The procedure: as §1
Assay [4] has as its system Bacillus subtilis (ATCC 6633). Described as above. The following applies: compounds in DMSO serially diluted with sterile water in microplates, overnight, 37 °C, 100% relative humidity, tetrazolium violet read-out. The assay is classed as cell-based. As for the experimental part: as §1
Assay [5] concerns Staphylococcus aureus (ATCC 25923). The description is as above. It counts as cell-based. To be noted: compounds in DMSO serially diluted with sterile water in microplates, overnight, 37 °C, 100% relative humidity, tetrazolium violet read-out. The procedure:
as §1

Assay [6] concerns Salmonella typhi (ATCC 19430). The assay is described as above. The assay is classed as cell-based. The following applies: compounds in DMSO serially diluted with sterile water in microplates, overnight, 37 °C, 100% relative humidity, tetrazolium violet read-out. The procedure:
as §1

In assay [7] the test system is Shigella flexeneri (clinical isolate). The assay is described as above. It counts as cell-based. To be noted: compounds in DMSO serially diluted with sterile water in microplates, overnight, 37 °C, 100% relative humidity, tetrazolium violet read-out. The procedure:
as §1

Here are results for six molecules from publication PMC3472760, “New 14-Membered Cyclopeptide Alkaloids from Zizyphus oxyphylla Edgew” (International Journal of Molecular Sciences, 2012).

As for `CCC(C)C1NC(=O)C2C(CCN2C(=O)C(Cc2c[nH]c3ccccc23)N(C)C)Oc2ccc(OC)c(c2)/C=C/NC1=O` (stereo not drawn) [Compound 3, nummularin-R], in assay [1], the “Minimum Inhibitory Concentration (MIC), Escherichia coli” value is 25 µg/mL. In addition, the “Antibacterial activity (in words)” value in assay [2] is on record as “low antibacterial activities”. Further, the “Minimum Inhibitory Concentration (MIC), Pseudomonas aeruginosa” value in assay [3] was found to be 100 µg/mL. The “Minimum Inhibitory Concentration (MIC), Bacillus subtilis” value in assay [4] worked out at 10 µg/mL. In addition, the “Minimum Inhibitory Concentration (MIC), Staphylococcus aureus” value in assay [5] is 50 µg/mL. Besides, the “Minimum Inhibitory Concentration (MIC), Salmonella typhi” value in assay [6] is 50 µg/mL. Besides, the “Minimum Inhibitory Concentration (MIC), Shigella flexeneri” value in assay [7] came out at 100 µg/mL.

Take `C[C@@H](O)[C@H]1C(=O)N2C(C(=O)O)=C(SCCN=CN)C[C@H]12` [Standard, Impenem, reference compound]: the “Minimum Inhibitory Concentration (MIC), Escherichia coli” value in assay [1] is 0.0002 µg/mL. The “Minimum Inhibitory Concentration (MIC), Pseudomonas aeruginosa” value in assay [3] is 0.0021 µg/mL. In addition, the “Minimum Inhibitory Concentration (MIC), Bacillus subtilis” value in assay [4] is 0.0005 µg/mL. Also, in assay [5], the “Minimum Inhibitory Concentration (MIC), Staphylococcus aureus” value was 0.0009 µg/mL. The “Minimum Inhibitory Concentration (MIC), Salmonella typhi” value in assay [6] came out at 0.0014 µg/mL. In addition, the “Minimum Inhibitory Concentration (MIC), Shigella flexeneri” value in assay [7] turned out to be 0.0003 µg/mL.

On to Oxyphylline B [Compound 4], for which, in assay [1], the “Minimum Inhibitory Concentration (MIC), Escherichia coli” value was 5 µg/mL. In addition, the “Minimum Inhibitory Concentration (MIC), Pseudomonas aeruginosa” value in assay [3] was 50 µg/mL. Moreover, in assay [5], the “Minimum Inhibitory Concentration (MIC), Staphylococcus aureus” value worked out at 25 µg/mL. Further, the “Minimum Inhibitory Concentration (MIC), Salmonella typhi” value in assay [6] (listed as Oxyphylline B (4)) was found to be 50 µg/mL. Besides, the “Minimum Inhibitory Concentration (MIC), Shigella flexeneri” value in assay [7] was 25 µg/mL.

As to Oxyphylline C [Compound 5], in assay [1], the “Minimum Inhibitory Concentration (MIC), Escherichia coli” value was determined as 10 µg/mL. For the same molecule, the “Antibacterial activity (in words)” value in assay [2] is “low antibacterial activities”. Further, the “Minimum Inhibitory Concentration (MIC), Pseudomonas aeruginosa” value in assay [3] was 50 µg/mL. Further, the “Minimum Inhibitory Concentration (MIC), Bacillus subtilis” value in assay [4] amounted to 50 µg/mL. For the same molecule, the “Minimum Inhibitory Concentration (MIC), Staphylococcus aureus” value in assay [5] worked out at 10 µg/mL. The “Minimum Inhibitory Concentration (MIC), Salmonella typhi” value in assay [6] was found to be 50 µg/mL. In addition, the “Minimum Inhibitory Concentration (MIC), Shigella flexeneri” value in assay [7] was found to be 50 µg/mL.

Turning to Oxyphylline D [Compound 1], the “Minimum Inhibitory Concentration (MIC), Escherichia coli” value in assay [1] is 10 µg/mL. Moreover, the “Antibacterial activity (in words)” value in assay [2] is “low antibacterial activities”. The “Minimum Inhibitory Concentration (MIC), Pseudomonas aeruginosa” value in assay [3] was found to be 50 µg/mL. Further, the “Minimum Inhibitory Concentration (MIC), Bacillus subtilis” value in assay [4] worked out at 25 µg/mL. Also, in assay [5], the “Minimum Inhibitory Concentration (MIC), Staphylococcus aureus” value was found to be 25 µg/mL. The “Minimum Inhibitory Concentration (MIC), Salmonella typhi” value in assay [6] was found to be 25 µg/mL. Also, the “Minimum Inhibitory Concentration (MIC), Shigella flexeneri” value in assay [7] came to 50 µg/mL.

Turning to nummularin-C [Compound 2], the “Minimum Inhibitory Concentration (MIC), Escherichia coli” value in assay [1] was found to be 10 µg/mL. For the same molecule, the “Antibacterial activity (in words)” value in assay [2] was “low antibacterial activities”. For the same molecule, the “Minimum Inhibitory Concentration (MIC), Pseudomonas aeruginosa” value in assay [3] is 100 µg/mL. Also, the “Minimum Inhibitory Concentration (MIC), Bacillus subtilis” value in assay [4] is 25 µg/mL. Further, the “Minimum Inhibitory Concentration (MIC), Staphylococcus aureus” value in assay [5] worked out at 25 µg/mL. Also, the “Minimum Inhibitory Concentration (MIC), Salmonella typhi” value in assay [6] was 10 µg/mL. For the same molecule, the “Minimum Inhibitory Concentration (MIC), Shigella flexeneri” value in assay [7] was determined as 100 µg/mL.
